Test results reported in patent publication US8133881B2, “Carbohydrate conjugates to prevent abuse of controlled substances” (Shire LLC, priority 2003, dated 2012).

What was measured:
[1] = Oral bioavailability of Hydrocodone vs. Galactose-Hydrocodone
[2] = Intranasal bioavailability of Hydrocodone vs. Galactose Hydrocodone
[3] = Kitchen test stability of conjugate (release of hydrocodone on heating in pH solutions); format: physicochemical; settings: for Percent Hydrocodone released: 80-90° C.
Procedure: To determine the accessibility of active narcotic from the synthetic conjugates, an attempt was made to release the narcotic from its conjugate. In a kitchen test, we determined the stability of the conjugates when subjected to conditions that would be available to any drug addict. Thus, the kitchen test is a model of “street-safeness” for the narcotics conjugates. The conjugates were heated in a water bath (80-90° C.) in a pH range (1-12) over a 1 hour time course. This pH range constitutes about any solution that can be found commercially at any grocery or drug store. The release of the narcotic from the conjugate was monitored by HPLC and quantified with a dose-response calibration curve of the parent narcotic.
Using only solutions that would be available to an addict, conjugates were dissolved in water. Water insoluble conjugates were either (a) dissolved in a minimum amount (≦5% v/v) of organic solvent [e.g., DMSO, methanol, or ethanol], (b) added as a suspension to the assay, or (c) dissolved completely in chloroform, and aliquoted to a test tube where the chloroform is evaporated, leaving only a known amount of conjugate. Upon preparation of the conjugate, the conjugate is added to the various pH solutions and heated for 0, 5, 15, or 60 minutes. At the indicated time point, each test tube was removed from the water bath and neutralized with a chilled phosphate buffer (100 mM, pH 7, 4° C.).
The kitchen test proceeds as follows: • 1. pH solutions [1, 4, 7, 9, 12] prepared with HPLC grade H2O and titrated with NaOH or HCl • 2. prepare hot water bath, keeping temperature at 80-90° C. • 3. conjugates prepared at a concentration of 1 mg/ml as indicated above • 4. 250 μl of conjugate added to 750 μl of pH solutions (final assay volume is 1 ml; if conjugate has been evaporated from CHCl3, add 1 ml of pH solution to test tube) • 5. immediately following the addition of conjugate to pH solution, place test tube in hot water bath (80-90° C.) • 6. at indicated time point, remove test tubes from heat and neutralize with 1 ml of chilled phosphate buffer [0 time point is not heated, but immediately neutralized with phosphate buffer after the addition of conjugate to each pH solution] • 7. before aliquoting each sample for HPLC analysis, the volume of each tube is adjusted to 2 ml to account for changes in concentration from evaporation
Following HPLC analysis, the amount of released narcotic was extrapolated from a calibration curve of the parent drug and plotted as % narcotic released (w/w, based upon theoretical loading of conjugated species) vs. time.

[4] = Intranasal bioavailability of Hydrocodone vs. Ribose Hydrocodone
[5] = Intravenous bioavailability of Hydrocodone vs. Ribose Hydrocodone
[6] = Oral bioavailability of Hydrocodone vs. Ribose-Hydrocodone (serum levels)

## COc1ccc2c3c1OC1C(OC(=O)OC[C@H]4O[C@H](O)[C@H](O)[C@@H](O)[C@H]4O)=CCC4[C@@H](C2)[N@@H+](C)CC[C@]314.[Cl-] (some centres unmarked) [Galactose-Hydrocodone, Galacto-Hydrocodone]
[1]
  Bioavailability compared to Hydrocodone-Bitartarate: approached that of Hydrocodone-Bitaratarate
[2]
  Bioavailability compared to Hydrocodone-Bitartarate: marginally decreased

## COc1ccc2c3c1OC1C(OC(=O)OC[C@H]4OC(O)C(O)[C@H]4O)=CCC4[C@@H](C2)[N@@H+](C)CC[C@]314.[Cl-] (some centres unmarked) [Ribose-Hydrocodone, Ribo-Hydrocodone]
[3]; pH 1, 5 minutes, relative to zero hour level of free Hydrocodone
  Percent Hydrocodone released: 8%
[3]; pH 1, 15 minutes, relative to zero hour level
  Percent Hydrocodone released: 18%
[3]; pH 1, 60 minutes, relative to zero hour level
  Percent Hydrocodone released: 27.8%
[3]; pH 4, 5 minutes, relative to zero hour level
  Percent Hydrocodone released: 11%
[3]; pH 4, 15 minutes, relative to zero hour level
  Percent Hydrocodone released: 12.6%
[3]; pH 4, 60 minutes, relative to zero hour level
  Percent Hydrocodone released: 19.6%
[3]; pH 7, 5 minutes, relative to zero hour level
  Percent Hydrocodone released: 12%
[3]; pH 7, 15 minutes, relative to zero hour level
  Percent Hydrocodone released: 16%
[3]; pH 7, 60 minutes, relative to zero hour level
  Percent Hydrocodone released: 23.4%
[3]; pH 9, 5 minutes, relative to zero hour level
  Percent Hydrocodone released: 9%
[3]; pH 9, 15 minutes, relative to zero hour level
  Percent Hydrocodone released: 11%
[3]; pH 9, 60 minutes, relative to zero hour level
  Percent Hydrocodone released: 21%
[3]; pH 12
  hydrocodone released from the conjugate: less than half
[3]; pH 12, 5 minutes, relative to zero hour level
  Percent Hydrocodone released: 44%
[3]; pH 12, 15 minutes, relative to zero hour level
  Percent Hydrocodone released: 33%
[3]; pH 12, 60 minutes, relative to zero hour level
  Percent Hydrocodone released: 41.1%
[3]; pHs other than pH 12, after one hour at 90° C.
  amount of hydrocodone released: ≤ 27.8%
[4]
  Bioavailability compared to Hydrocodone-Bitartarate: decreased
[5]
  Bioavailability compared to Hydrocodone-Bitartarate: decreased
  clearance rate: increased clearance rate
[6]
  Bioavailability compared to Hydrocodone-Bitartarate: approximately equal
